{"source": "paper PMC4965148", "about": "(PLoS ONE, 2016)", "key": {"[1]": {"set-up": "method as in PMID 21337354", "conditions": "rodents; cited from earlier work"}, "[2]": {"molecular_target": "HEK293/Human α7 nAChR (Homo sapiens, UniProt P36544)", "sequence (P36544 23-502)": "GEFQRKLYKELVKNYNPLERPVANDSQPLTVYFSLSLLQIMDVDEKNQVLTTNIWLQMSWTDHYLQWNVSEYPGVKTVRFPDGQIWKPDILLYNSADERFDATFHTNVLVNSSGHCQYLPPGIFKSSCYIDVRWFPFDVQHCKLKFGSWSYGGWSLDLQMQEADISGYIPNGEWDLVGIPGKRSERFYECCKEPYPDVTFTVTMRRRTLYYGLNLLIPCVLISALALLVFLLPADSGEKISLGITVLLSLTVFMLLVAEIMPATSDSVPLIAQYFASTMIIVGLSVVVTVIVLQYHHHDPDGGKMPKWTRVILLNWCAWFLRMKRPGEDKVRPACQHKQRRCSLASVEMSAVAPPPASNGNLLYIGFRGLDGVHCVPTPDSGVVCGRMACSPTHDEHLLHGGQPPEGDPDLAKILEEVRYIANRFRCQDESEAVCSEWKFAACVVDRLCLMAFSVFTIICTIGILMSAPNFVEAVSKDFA", "sequence (Q7Z5B4 29-369 partner)": "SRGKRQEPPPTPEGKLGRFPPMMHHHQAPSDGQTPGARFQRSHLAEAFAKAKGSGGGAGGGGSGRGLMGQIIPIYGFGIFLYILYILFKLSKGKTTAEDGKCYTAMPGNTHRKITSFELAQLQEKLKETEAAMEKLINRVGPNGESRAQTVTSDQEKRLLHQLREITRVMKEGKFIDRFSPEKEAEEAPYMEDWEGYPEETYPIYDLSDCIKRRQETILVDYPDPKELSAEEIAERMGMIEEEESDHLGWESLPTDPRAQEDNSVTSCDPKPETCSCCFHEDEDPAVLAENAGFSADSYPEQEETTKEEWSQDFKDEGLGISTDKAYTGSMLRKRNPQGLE", "experiment": "Ca2+ flux (FLIPR) agonist assay", "type": "cell-based"}, "[3]": {"molecular_target": "T1, HEK293/Human 5-HT3A (Homo sapiens, UniProt P46098)", "T1 construct": "expressed in transfected cells; host or cells: HEK293 (made by Bristol-Myers Squibb)", "T1 sequence (P46098 24-478)": "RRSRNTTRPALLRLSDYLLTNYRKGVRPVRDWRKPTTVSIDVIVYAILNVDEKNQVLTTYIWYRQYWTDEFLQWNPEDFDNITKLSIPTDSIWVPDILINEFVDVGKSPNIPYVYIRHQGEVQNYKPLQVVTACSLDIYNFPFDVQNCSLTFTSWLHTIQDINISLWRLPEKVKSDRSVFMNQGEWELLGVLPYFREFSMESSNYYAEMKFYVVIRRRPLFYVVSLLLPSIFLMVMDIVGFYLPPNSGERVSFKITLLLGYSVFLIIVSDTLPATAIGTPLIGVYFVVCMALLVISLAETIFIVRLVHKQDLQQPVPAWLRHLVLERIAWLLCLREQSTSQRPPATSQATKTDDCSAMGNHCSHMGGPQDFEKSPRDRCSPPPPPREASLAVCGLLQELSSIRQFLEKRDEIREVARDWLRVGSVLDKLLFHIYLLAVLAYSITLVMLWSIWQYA", "experiment": "Ca2+ flux (FLIPR) 5-HT3A antagonist assay", "type": "cell-based", "procedure": "Functional activity was examined using Ca^2+-sensitive, dye-based, microfluorometric assays read on the FLIPR Tetra plate reader platform (Molecular Devices, CA, USA). Cells were plated in 384-well black, clear-bottomed Greiner poly-D-lysine coated plates at a density of ~25 K cells/well and incubated at 29°C for 48 h. Prior to assay, media contents were removed and cells incubated in assay buffer containing 5μM final Fluo-4 dye for 90 min. For nAChR assays, the dye-loading buffer was HBSS (#14175 Life Technologies) supplemented with 20 mM HEPES, 0.5 mM CaCl2, 1 mM MgCl2 and 10 μM atropine (final concentration). Test compounds were solubilized in DMSO and serially diluted in NUNC 384-well plates prior to addition of assay buffer (5.3 mM KCl + 140 mM NaCl + 20 mM Hepes + 25 mM CaCl2 + 1 mM MgCl2 + 10 μM atropine final concentration). Compounds diluted in assay buffer were added to the assay plate by the FLIPR and read for approximately 2 min. […] For 5-HT3A antagonist studies, the dye loading and compound diluent buffer was HBSS (#14025 Life Technologies) supplemented with 20 mM HEPES (final concentration) and the concentration of 5-HT used in the assay was 2 μM. Offline transformation of concentration response data was done using a 4 parameter logistic fit using a Bristol-Myers Squibb proprietary informatics software suite."}, "[4]": {"molecular_target": "Rat Brain α7 nAChR (Rattus norvegicus, UniProt Q05941)", "sequence (Q05941 23-502)": "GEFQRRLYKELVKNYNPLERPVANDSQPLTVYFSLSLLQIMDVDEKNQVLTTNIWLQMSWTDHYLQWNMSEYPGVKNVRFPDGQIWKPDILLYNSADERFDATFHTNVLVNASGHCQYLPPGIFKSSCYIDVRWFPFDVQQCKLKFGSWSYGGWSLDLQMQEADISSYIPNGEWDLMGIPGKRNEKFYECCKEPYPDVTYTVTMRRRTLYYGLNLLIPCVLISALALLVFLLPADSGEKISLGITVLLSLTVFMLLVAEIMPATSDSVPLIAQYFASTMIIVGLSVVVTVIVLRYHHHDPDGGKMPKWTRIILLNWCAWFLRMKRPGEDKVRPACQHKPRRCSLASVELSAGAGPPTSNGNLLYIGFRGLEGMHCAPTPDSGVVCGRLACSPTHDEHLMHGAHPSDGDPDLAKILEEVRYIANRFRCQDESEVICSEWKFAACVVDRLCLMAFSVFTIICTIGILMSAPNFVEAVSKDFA", "experiment": "[3H]-A-585539 filtration binding"}, "[5]": {"molecular_target": "T2, HEK293/rat α7 nAChR cells (Rattus norvegicus, UniProt Q05941)", "T2 construct": "expressed in transfected cells", "T2 sequence (Q05941 23-502)": "as above", "experiment": "Whole cell voltage clamp electrophysiology", "type": "cell-based", "conditions": "n = 6"}, "[6]": {"test_system": "C57Bl/6 mice", "experiment": "Mouse 24 h novel object recognition", "type": "in vivo", "procedure": "The procedure followed a 3 day protocol. On day 1 (habituation) individual mice were habituated to the testing chamber (a white PVC box 48 cm long x 38 cm wide x 20 cm high with brown linoleum flooring) for 15 min then returned to their home cage. On day 2 (training) individual mice were returned to the testing chamber containing 2 identical objects and allowed to explore. The training session lasted for up to 15 min or until the mouse explored the objects for a total of 60 s. A maximal trial duration of 15 min was used to accommodate mice that are slower to initiate exploration. On day 3 (testing) individual mice were returned to the testing chamber 24 h later containing 1 familiar object encountered in the previous training session and one novel object. The testing session lasted up to 10 min or until the mouse explored the objects for a total of 60 s. The objects used for these studies were made of duplex legos approximately 3 inches high x 1 inch wide; one object was a multicolored rectangle and the second object was a solid color rectangle with a short arm attached. The location of the objects was counterbalanced between animals but was consistent within animals so that only the object itself was novel on the test session. The familiar object used during the test session was the same object used during training and all objects were thoroughly cleaned between sessions and between subjects. Animal behavior was video recorded during both training and testing and the amount of time spent exploring the objects determined using Cleversys software. Object exploration was only scored when the animal’s nose was within 1 cm of the object. […] The vehicle was chosen for sc dosing to ensure that BMS-933043 was dosed as a solution and not a suspension. […] For each subject the % discrimination index (DI) was calculated for both the training and test session as follows: %DI training = (time exploring object 1—time exploring object 2)/(total time exploring object 1 + object 2) X 100; %DI testing = (time exploring novel object—time exploring familiar object)/(total time exploring novel + familiar object) X 100."}, "[7]": {"molecular_target": "T3, α7 nAChR (Mus musculus, UniProt P49582)", "T3 construct": "One forebrain hemisphere from each animal was thawed and homogenized in assay buffer; from tissue; host or cells: forebrain homogenate of dosed male C57Bl/6 mice", "T3 sequence (P49582 23-502)": "as the sequence (Q05941 23-502) above, with A402T counted along it", "experiment": "Ex vivo α7 nAChR occupancy ([3H]-A-585539)", "type": "in vivo", "conditions": "mouse, sc, mice"}, "[8]": {"experiment": "Plasma and brain concentrations after dosing", "type": "in vivo, mouse", "conditions": "for Kp: mouse, brain/plasma", "procedure": "Occupancy determinations were made either on completion of behavioral testing or in satellite groups of animals dosed in parallel with behavioral testing. At specified time points after dosing, the forebrain (for occupancy), the remaining hindbrain (for brain drug exposure) and plasma were collected, frozen in chilled isopentane and stored at -80°C until assayed. […] Homogenized tissue aliquots were frozen immediately and stored at -80°C. […] Non-specific binding was defined by adding 25 μM MLA to wells containing tissues from vehicle-treated animals. […] The filters were washed with ice-cold assay buffer, punched into a clear plate and 200 μl scintillation fluid added per well. Bound radioactivity was measured using a Wallac Microbeta liquid scintillation counter. Specific binding was calculated by subtracting the value of the non-specific binding from that of the total binding in each sample. The percent occupancy was calculated as [1 –(specific binding in drug treated mice/specific binding in vehicle treated mice)] x 100.\nIn brief, 50 μL of the plasma sample was extracted by protein precipitation with 150 μL acetonitrile containing an internal standard and 5 μL of supernatant injected into the LC-MS/MS system. Analytes were separated by reversed phase chromatography and detection of each analyte was achieved through selected reaction monitoring mode of mass spectrometry."}, "[9]": {"conditions": "NS-6740 (10 mg/kg sc) 10 min prior to BMS-933043 (0.3 mg/kg sc)"}}, "note": "Several values for one entry are separate records, joined by “and”; a condition that tells them apart may be missing. Identical values can stand only once. Like-named read-outs stand apart in the source and are kept apart here."}
{"molecule": "CCN1C[C@]2(COC(=O)c3ccccc3N3C(=O)C[C@H](C)C3=O)CC[C@H](OC)[C@@]34[C@@H]5C[C@H]6[C@H](OC)[C@@H]5[C@](O)(C[C@@H]6OC)[C@@](O)([C@@H](OC)[C@H]23)[C@@H]14", "note": "[MLA, methyllycaconitine]", "values": [{"measurement": "brain/plasma", "setting": "[1]", "result": "0.06–0.09"}]}
{"molecule": "O=C(c1ccc(-c2cccc(C(F)(F)F)c2)o1)N1CCN2CCC1CC2", "note": "[NS-6740, 4-[[5-[3-(trifluoromethyl)phenyl]-2-furanyl]carbonyl]-1,4-diazabicyclo[3.2.2]nonane]", "values": [{"measurement": "α7 nAChR agonist activity", "setting": "[2]", "result": "no α7 nAChR agonist activity"}, {"measurement": "IC50", "setting": "[3]; FLIPR, individual determinations, read-out: Human 5-HT3A IC50 values (individual)", "result": "6.21 µM and 5.69 µM and 5.32 µM and 5.91 µM and 2.39 µM and 3.11 µM and 4.7 µM and 5.68 µM and 4.43 µM"}, {"measurement": "IC50", "setting": "[3]; HEK293/Human 5-HT3A Mean ± SD IC50, Ca2+ flux (FLIPR), antagonism of 2 μM 5-HT", "result": 4.83, "unit": "µM"}, {"measurement": "Ki", "setting": "[4]; displacement of [3H]-A-585539, read-out: Rat Brain α7 nAChR Mean ± SD Ki", "result": "0.00285 ± 0.00044", "unit": "µM"}, {"measurement": "Ki", "setting": "[4]; individual determinations, read-out: Rat Brain α7 nAChR Ki (individual)", "result": "0.00245 µM and 0.00278 µM and 0.00333 µM"}, {"measurement": "IC50", "setting": "[5]; IC50 for inhibition of BMS-933043 (10 μM) net charge crossing the membrane", "result": 0.255, "unit": "µM"}, {"measurement": "IC50", "setting": "[5]; IC50 for inhibition of BMS-933043 (10 μM) peak current response", "result": "0.283 ± 0.033", "unit": "µM"}, {"measurement": "24 h recognition memory after NS-6740 alone", "setting": "[6]; 3 or 10 mg/kg sc", "result": "did not show improved 24 h recognition memory"}, {"measurement": "effect of pretreatment on BMS-933043 (0.3 mg/kg, sc) improved discrimination index", "setting": "[6]; NS-6740 10 mg/kg sc", "result": "abolished the improved discrimination index"}, {"measurement": "% Discrimination Index (DI) Testing (day 3) Mean ± SEM", "setting": "[6]; [9]", "result": "3.83 ± 4.25", "unit": "%"}, {"measurement": "% Discrimination Index (DI) Training (day 2) Mean ± SEM", "setting": "[6]; [9]", "result": "-4.82 ± 7.09", "unit": "%"}, {"measurement": "% Discrimination Index (DI) Testing (day 3) Mean ± SEM", "setting": "[6]; NS-6740 (10 mg/kg sc)/Vehicle", "result": "-1.02 ± 4.40", "unit": "%"}, {"measurement": "% Discrimination Index (DI) Training (day 2) Mean ± SEM", "setting": "[6]; NS-6740 (10 mg/kg sc)/Vehicle", "result": "6.43 ± 5.54", "unit": "%"}, {"measurement": "receptor occupancy at 3 mg/kg", "setting": "[7]; read-out: ex vivo α7 nAChR occupancy, NS-6740 3 mg/kg sc", "result": 89, "unit": "%"}, {"measurement": "receptor occupancy at 10 mg/kg", "setting": "[7]; read-out: ex vivo α7 nAChR occupancy, NS-6740 10 mg/kg sc", "result": 98, "unit": "%"}, {"measurement": "Brain Mean ± SD", "setting": "[8]; NS-6740 0.3 mg/kg sc, mice", "result": "316 ± 43", "unit": "nM"}, {"measurement": "Plasma Mean ± SD", "setting": "[8]; NS-6740 0.3 mg/kg sc, mice", "result": "37 ± 2", "unit": "nM"}, {"measurement": "Brain Mean ± SD", "setting": "[8]; NS-6740 1 mg/kg sc, mice", "result": "1,125 ± 66 nM"}, {"measurement": "Plasma Mean ± SD", "setting": "[8]; NS-6740 1 mg/kg sc, mice", "result": "130 ± 7", "unit": "nM"}, {"measurement": "Brain Mean ± SD", "setting": "[8]; NS-6740 3 mg/kg sc, mice", "result": "3,998 ± 273 nM"}, {"measurement": "Plasma Mean ± SD", "setting": "[8]; NS-6740 3 mg/kg sc, mice", "result": "544 ± 214", "unit": "nM"}, {"measurement": "Brain Mean ± SD", "setting": "[8]; NS-6740 10 mg/kg sc, mice", "result": "17,725 ± 1,928 nM"}, {"measurement": "Plasma Mean ± SD", "setting": "[8]; NS-6740 10 mg/kg sc, mice", "result": "2,083 ± 426 nM"}, {"measurement": "Kp", "setting": "[8]; NS-6740 0.3 mg/kg sc, mice, read-out: Brain/Plasma Ratio", "result": 8.54}, {"measurement": "Kp", "setting": "[8]; NS-6740 1 mg/kg sc, mice, read-out: Brain/Plasma Ratio", "result": 8.65}, {"measurement": "Kp", "setting": "[8]; NS-6740 3 mg/kg sc, mice, read-out: Brain/Plasma Ratio", "result": 7.35}, {"measurement": "Kp", "setting": "[8]; NS-6740 10 mg/kg sc, mice, read-out: Brain/Plasma Ratio", "result": 8.51}, {"measurement": "Kp", "setting": "[8]; NS-6740, mice sc, read-out: average brain/plasma ratio", "result": "> 8"}]}
